Results: patent US11524966B1 (Valo Early Discovery, Inc., priority 2017, dated 2022)

Molecular target: T1, USP25 (USP25-His6, Boston Biochem E-546) (Homo sapiens, UniProt Q9UHP3)
T1 construct: His6; purchased Boston Biochem E-546
T1 sequence (Q9UHP3 1-1055): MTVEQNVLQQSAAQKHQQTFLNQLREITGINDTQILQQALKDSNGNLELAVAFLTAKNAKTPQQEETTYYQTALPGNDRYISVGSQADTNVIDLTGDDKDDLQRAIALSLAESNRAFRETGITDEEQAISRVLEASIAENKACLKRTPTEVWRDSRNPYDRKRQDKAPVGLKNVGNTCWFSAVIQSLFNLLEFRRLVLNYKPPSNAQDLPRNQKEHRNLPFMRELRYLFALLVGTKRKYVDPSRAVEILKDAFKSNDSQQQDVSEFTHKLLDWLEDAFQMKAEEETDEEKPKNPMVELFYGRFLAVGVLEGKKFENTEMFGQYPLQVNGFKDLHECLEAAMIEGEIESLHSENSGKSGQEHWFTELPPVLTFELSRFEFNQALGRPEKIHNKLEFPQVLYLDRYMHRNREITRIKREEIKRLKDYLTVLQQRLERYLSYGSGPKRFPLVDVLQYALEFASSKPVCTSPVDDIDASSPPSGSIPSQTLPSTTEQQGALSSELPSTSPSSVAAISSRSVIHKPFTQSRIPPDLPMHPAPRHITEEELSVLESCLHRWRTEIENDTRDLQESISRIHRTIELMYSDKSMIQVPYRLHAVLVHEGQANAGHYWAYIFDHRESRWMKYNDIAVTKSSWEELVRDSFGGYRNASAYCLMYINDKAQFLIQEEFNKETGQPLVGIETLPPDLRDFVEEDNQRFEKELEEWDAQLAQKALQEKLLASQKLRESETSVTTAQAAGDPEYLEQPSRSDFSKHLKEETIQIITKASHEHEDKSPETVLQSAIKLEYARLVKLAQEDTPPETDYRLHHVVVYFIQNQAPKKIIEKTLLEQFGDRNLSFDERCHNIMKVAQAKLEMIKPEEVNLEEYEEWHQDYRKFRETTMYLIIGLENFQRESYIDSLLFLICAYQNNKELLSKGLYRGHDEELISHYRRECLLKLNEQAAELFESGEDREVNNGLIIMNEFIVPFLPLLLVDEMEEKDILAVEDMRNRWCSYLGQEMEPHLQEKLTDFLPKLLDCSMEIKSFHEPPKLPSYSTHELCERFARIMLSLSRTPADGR
Test: Ubiquitin-Rhodamine 110 Assay for USP25 Activity, Example A-2
Format: biochemical
Conditions: Ub-Rh110 assay, Example A-2; read-out: USP25 A-2 IC50 range
In short: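 75 pM USP25-His6 was preincubated 30 min with compound (10-point 3-fold series, 25 μM–1.3 nM) in pH 8.0 Tris buffer with BME, BGG and Triton X-100. Then 25 nM Ub-Rh110 (<<Km) was added for 45 min at room temperature, stopped with citric acid, fluorescence read at 485/535 nm, IC50 by 4-parameter fit.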

## Cc1ccc2c(N)c(C(=O)N[C@@H]3COc4cc(N5CCNCC5)c(F)cc4C3)sc2n1 [Example 1-36, (S)-3-amino-N-(6-fluoro-7-(piperazin-1-yl)chroman-3-yl)-6-methylthieno[2,3-b]pyridine-2-carboxamide]
  IC50: > 2000 nM

## Cc1nc2sc(C(=O)N[C@@H]3COc4cc(N5CCNCC5)ccc4C3)c(N)c2cc1F (single isomer, unassigned) [Example 1-16]
  IC50: > 2000 nM

## Cc1ccc2c(N)c(C(=O)N[C@H]3COc4cc(N5CCN[C@H](C)[C@@H]5C)ccc4C3)sc2n1 (single isomer, unassigned) [Example 1-9]
  IC50: 200 to 2000 nM

## Cc1nc2sc(C(=O)N[C@H]3COc4cc(N5CC6CCCC(C5)N6)ccc4C3)c(N)c2s1 [Example 2-27]
  IC50: 200 to 2000 nM

## CCn1ccc2cc(C(=O)N[C@H]3COc4cc(N5CC6CNCC(C5)C6(F)F)ccc4C3)cnc21 [Example 2-30, N-((3R)-7-(9,9-difluoro-3,7-diazabicyclo[3.3.1]nonan-3-yl)chroman-3-yl)-1-ethyl-1H-pyrrolo[2,3-b]pyridine-5-carboxamide]
  IC50: 1 to 50 nM

## Cc1nc2sc(C(=O)N[C@H]3COc4cc(N5CC6CCC(C5)N6)ccc4C3)c(N)c2s1 [Example 1-23, N-((3R)-7-(3,8-diazabicyclo[3.2.1]octan-3-yl)chroman-3-yl)-6-amino-2-methylthieno[2,3-d]thiazole-5-carboxamide]
  IC50: 200 to 2000 nM

## Nc1c(C(=O)N[C@@H]2COc3cc(N4CC5CCC(C4)N5)ccc3C2)sc2ncc(F)cc12 (single isomer, unassigned) [Example 1-18]
  IC50: > 2000 nM

## Cc1ccc2c(N)c(C(=O)N[C@@H]3COc4cc(N5CC6CCC(C5)N6)ccc4C3)sc2n1 (single isomer, unassigned) [Example 1-4]
  IC50: > 2000 nM

## Cc1cnc2c(N)c(C(=O)N[C@H]3COc4cc(N5CCNCC5)ccc4C3)sc2n1 (single isomer, unassigned) [Example 1-21]
  IC50: 200 to 2000 nM

## Cc1ccc2c(N)c(C(=O)N[C@H]3COc4cc(N5CCNCC5)c(OC(F)(F)F)cc4C3)sc2n1 (single isomer, unassigned) [Example 1-31]
  IC50: > 2000 nM

## Cc1cnc2c(N)c(C(=O)N[C@H]3COc4cc(N5CC6CNCC(C5)O6)ccc4C3)sc2n1 [Example 2-13, N-((3R)-7-(9-oxa-3,7-diazabicyclo[3.3.1]nonan-3-yl)chroman-3-yl)-7-amino-3-methylthieno[2,3-b]pyrazine-6-carboxamide]
  IC50: 200 to 2000 nM

## Cc1nc2sc(C(=O)N[C@H]3COc4cc(N5CCNCC5)cc(F)c4C3)c(N)c2s1 (single isomer, unassigned) [Example 1-37]
  IC50: > 2000 nM

## Cc1nc2sc(C(=O)N[C@@H]3COc4cc(N5CC6CCC(C5)N6)ccc4C3)c(N)c2s1 [Example 1-24, N-((3S)-7-(3,8-diazabicyclo[3.2.1]octan-3-yl)chroman-3-yl)-6-amino-2-methylthieno[2,3-d]thiazole-5-carboxamide]
  IC50: > 2000 nM

## Cc1cnc2c(N)c(C(=O)N[C@@H]3CCc4cc(N5CCNCC5)c(C)cc4C3)sc2n1 (single isomer, unassigned) [Example 2-35]
  IC50: > 2000 nM

## Cc1ccc2c(N)c(C(=O)N[C@H]3COc4cc(N5CCN[C@H](C)C5)ccc4C3)sc2n1 [Example 2-9, 3-amino-6-methyl-N-((R)-7-((R)-3-methylpiperazin-1-yl)chroman-3-yl)thieno[2,3-b]pyridine-2-carboxamide]
  IC50: 200 to 2000 nM

## O=C(N[C@H]1COc2cc(N3CC4CCC(C3)N4)ccc2C1)c1cnc2c(c1)C1(CCN2)CC1 [Example 2-24, N-((3R)-7-(3,8-diazabicyclo[3.2.1]octan-3-yl)chroman-3-yl)-2′,3′-dihydro-1′H-spiro[cyclopropane-1,4′-[1,8]naphthyridine]-6′-carboxamide]
  IC50: 200 to 2000 nM

## Cc1ccc2c(N)c(C(=O)N[C@@H]3COc4c(ccc(N5CCNCC5)c4F)C3)sc2n1 [Example 1-34, (S)-3-amino-N-(8-fluoro-7-(piperazin-1-yl)chroman-3-yl)-6-methylthieno[2,3-b]pyridine-2-carboxamide]
  IC50: > 2000 nM

## O=C(N[C@H]1COc2cc(N3CC4CCC(C3)N4)ccc2C1)c1ccc(NCc2ccccc2)nc1 [Example 2-25, N-((3R)-7-(3,8-diazabicyclo[3.2.1]octan-3-yl)chroman-3-yl)-6-(benzylamino)nicotinamide]
  IC50: 50 to 200 nM

## Cc1ccc2c(N)c(C(=O)N[C@@H]3COc4cc(N5CCNCC5)c(OC(F)(F)F)cc4C3)sc2n1 (single isomer, unassigned) [Example 1-32]
  IC50: 200 to 2000 nM

## Cc1cnc2c(N)c(C(=O)N[C@@H]3COc4cc(N5CCNCC5)ccc4C3)sc2n1 (single isomer, unassigned) [Example 1-22]
  IC50: > 2000 nM

## Cc1ccc2c(N)c(C(=O)N[C@@H]3COc4cc(N5CCN[C@H](C)[C@H]5C)ccc4C3)sc2n1 (single isomer, unassigned) [Example 1-12]
  IC50: 1 to 50 nM

## Cc1ccc2c(N)c(C(=O)N[C@@H]3COc4cc(N5CCNCC5)ccc4C3)sc2n1 (single isomer, unassigned) [Example 1-2]
  IC50: > 2000 nM

## Cc1ccc2c(N)c(C(=O)N[C@H]3COc4cc(N5CCCC56CNC6)ccc4C3)sc2n1 [Example 2-7, (R)-N-(7-(2,5-diazaspiro[3.4]octan-5-yl)chroman-3-yl)-3-amino-6-methylthieno[2,3-b]pyridine-2-carboxamide]
  IC50: 200 to 2000 nM
